The test concerns P388 leukemia ip, CD2F1 mice, survival T/C. The test is described as follows: NCI In Vivo Anticancer Drug Screen. Data for tumor model P388 Leukemia (intraperitoneal) in CD2F1 (CDF1) mice. Particulars: endpoint: median survival time, higher = longer survival. An outline of the steps: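 Mice carrying the transplanted tumor received test compound or vehicle. Survival was recorded in each group, and the value is the treated-group measurement divided by that of the vehicle-treated control group.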

The mark [1] stands for this setting: dose: 50.0 mg/kg/injection, schedule: Q01DX009 (ip), vehicle: saline with Tween-80.
The mark [2] stands for this setting: dose: 100.0 mg/kg/injection, schedule: Q01DX009 (ip), vehicle: saline with Tween-80.
Setting [3] is: dose: 200.0 mg/kg/injection, schedule: Q01DX009 (ip), vehicle: saline with Tween-80.
The mark [4] stands for this setting: dose: 50.0 mg/kg/injection, schedule: Q01DX005 (ip), vehicle: saline with Tween-80.
The mark [5] stands for this setting: dose: 100.0 mg/kg/injection, schedule: Q01DX005 (ip), vehicle: saline with Tween-80.
The mark [6] stands for this setting: dose: 200.0 mg/kg/injection, schedule: Q01DX005 (ip), vehicle: saline with Tween-80.
Setting [7] is: dose: 3.13 mg/kg/injection, schedule: Q01DX009 (ip), vehicle: saline with Tween-80.
The mark [8] stands for this setting: dose: 6.25 mg/kg/injection, schedule: Q01DX009 (ip), vehicle: saline with Tween-80.
Where [9] appears, read: dose: 12.5 mg/kg/injection, schedule: Q01DX009 (ip), vehicle: saline with Tween-80.
Setting [10] is: dose: 25.0 mg/kg/injection, schedule: Q01DX009 (ip), vehicle: saline with Tween-80.
Setting [11] is: dose: 50.0 mg/kg/injection, schedule: Q01DX009 (ip), vehicle: Klucel (hydroxypropylcellulose) (HPC).
[12] abbreviates: dose: 100.0 mg/kg/injection, schedule: Q01DX009 (ip), vehicle: Klucel (hydroxypropylcellulose) (HPC).
Setting [13] is: dose: 200.0 mg/kg/injection, schedule: Q01DX009 (ip), vehicle: Klucel (hydroxypropylcellulose) (HPC).
[14] abbreviates: dose: 100.0 mg/kg/injection, schedule: Q04DX002 (ip), vehicle: saline with Tween-80.
The mark [15] stands for this setting: dose: 60.0 mg/kg/injection, schedule: Q01DX005 (ip), vehicle: saline.
[16] abbreviates: dose: 120.0 mg/kg/injection, schedule: Q01DX005 (ip), vehicle: saline.

Where “and” joins values, the source holds several entries; their conditions need not be identical. Identical values can stand only once. Toxic doses and inconclusive results are not listed.

Here are results for 24 compounds from PubChem BioAssay AID330 (DTP/NCI, 2004).

As for `O=P(Oc1ccccc1)(Oc1ccccc1)C(O)C(Cl)(Cl)Cl` (stereo not drawn), the T/C is, setting by setting: under setting [1], 107 % of control; under setting [2], 100 % of control and 117 % of control; under setting [3], 103 % of control.
Regarding `CN(CC(=O)NC(Cc1c[nH]c2ccccc12)C(=O)O)C(=O)OCc1ccccc1` (stereo not drawn), the T/C under setting [4] was 96 % of control, the T/C under setting [5] was 102 % of control and the T/C under setting [6] is 98 % of control.
As for `Clc1ccc(N=Cc2cccs2)cc1`, the T/C reads like this: under setting [7], 100 % of control; under setting [8], 88 % of control; under setting [9], 90 % of control; under setting [10], 101 % of control; under setting [11], 110 % of control; under setting [12], 100 % of control. Further, the T/C under setting [13] is 100 % of control.
In the case of `C=C1C(=O)O[C@@H]2C3=C(C)C(=O)CC[C@]3(C)CC[C@@H]12`, the T/C under setting [14] was 108 % of control.
On to `Cc1ccc(-c2nc3ccccc3c(=O)n2C(C)C)cc1`, for which the T/C is, setting by setting: under setting [1], 100 % of control; under setting [2], 98 % of control; under setting [3], 87 % of control.
In the case of `CC1CC12OC(=O)N(c1cc(Cl)cc(Cl)c1)C2=O` (stereo not drawn), the T/C was 98 % of control (dose: 50.0 mg/kg/injection, schedule: Q01DX005 (ip), vehicle: saline + Tween-80 + alcohol); 100 % of control (dose: 100.0 mg/kg/injection, schedule: Q01DX005 (ip), vehicle: saline + Tween-80 + alcohol); 101 % of control (dose: 200.0 mg/kg/injection, schedule: Q01DX005 (ip), vehicle: saline + Tween-80 + alcohol).
Regarding `CCN=C(N)Nc1ccc(NC(=O)c2ccc(C(=O)Nc3ccc(NC(N)=NCC)cc3)cc2)cc1`, the T/C reads like this: under setting [7], 163 % of control; (dose: 3.13 mg/kg/injection, schedule: Q04DX003 (ip), vehicle: saline with Tween-80) 113 % of control; under setting [8], 168 % of control; (dose: 6.25 mg/kg/injection, schedule: Q04DX003 (ip), vehicle: saline with Tween-80) 122 % of control; under setting [9], 109 % of control and 113 % of control; (dose: 25.0 mg/kg/injection, schedule: Q04DX003 (ip), vehicle: saline with Tween-80) 200 % of control. In addition, the T/C (dose: 50.0 mg/kg/injection, schedule: Q04DX003 (ip), vehicle: saline with Tween-80) is 181 % of control.
As to `CCC(=O)NC(Cc1cccc(F)c1)C(=O)O` (stereo not drawn), the T/C (dose: 6.25 mg/kg/injection, schedule: Q01DX009 (ip), vehicle: saline) is 112 % of control and the T/C (dose: 12.5 mg/kg/injection, schedule: Q01DX009 (ip), vehicle: saline) is 102 % of control.
With `Nc1ncc2[nH]c(N)nc2n1`, the T/C (dose: 12.5 mg/kg/injection, schedule: Q01DX005 (ip), vehicle: Klucel (hydroxypropylcellulose) (HPC)) was 106 % of control; the T/C (dose: 25.0 mg/kg/injection, schedule: Q01DX005 (ip), vehicle: Klucel (hydroxypropylcellulose) (HPC)) was 97 % of control; the T/C (dose: 50.0 mg/kg/injection, schedule: Q01DX005 (ip), vehicle: Klucel (hydroxypropylcellulose) (HPC)) is 104 % of control and 107 % of control.
For the compound `CCN(CC)CCCOc1ncnc2ccc(Cl)cc12`, the T/C is 98 % of control (dose: 25.0 mg/kg/injection, schedule: Q01DX005 (ip), vehicle: saline); 99 % of control (dose: 50.0 mg/kg/injection, schedule: Q01DX005 (ip), vehicle: saline); 93 % of control (dose: 100.0 mg/kg/injection, schedule: Q01DX005 (ip), vehicle: saline); 96 % of control (dose: 200.0 mg/kg/injection, schedule: Q01DX005 (ip), vehicle: saline).
For `N=C(Oc1ccccc1[N+](=O)[O-])c1ccccc1`, the T/C was 90 % of control and 94 % of control under setting [1]; 100 % of control and 95 % of control under setting [2]; 102 % of control and 93 % of control under setting [3]; 88 % of control (dose: 400.0 mg/kg/injection, schedule: Q01DX009 (ip), vehicle: saline with Tween-80).
On to `O=C(Nc1cc(S(=O)(=O)O)cc2cc(S(=O)(=O)O)c(N=Nc3cc(Nc4nc(Cl)nc(Nc5ccc(S(=O)(=O)O)cc5)n4)ccc3S(=O)(=O)O)c(O)c12)c1ccccc1`, for which the T/C runs as follows: under setting [15], 106 % of control; under setting [16], 102 % of control.
For `CC1c2ccccc2-c2ccccc2N1C(=O)c1cccc(C(=O)N2c3ccccc3-c3ccccc3C2C)n1` (stereo not drawn), the T/C by setting is: (dose: 60.0 mg/kg/injection, schedule: Q01DX005 (ip), vehicle: saline with Tween-80) 93 % of control; (dose: 120.0 mg/kg/injection, schedule: Q01DX005 (ip), vehicle: saline with Tween-80) 98 % of control; (dose: 240.0 mg/kg/injection, schedule: Q01DX005 (ip), vehicle: saline with Tween-80) 90 % of control.
On to `COC(=O)[C@H]1O[C@H]1c1ccccn1`, for which the T/C (dose: 25.0 mg/kg/injection, schedule: Q01DX005 (ip), vehicle: distilled water + alcohol) is 103 % of control; the T/C (dose: 50.0 mg/kg/injection, schedule: Q01DX005 (ip), vehicle: distilled water + alcohol) is 106 % of control; the T/C (dose: 100.0 mg/kg/injection, schedule: Q01DX005 (ip), vehicle: distilled water + alcohol) is 99 % of control; the T/C (dose: 200.0 mg/kg/injection, schedule: Q01DX005 (ip), vehicle: distilled water + alcohol) was 107 % of control.
Consider `CNC(=O)OCc1c(COC(=O)NC)c(-c2ccccc2)n(C)c1-c1ccccc1`, for which the T/C reads like this: (dose: 10.0 mg/kg/injection, schedule: Q01DX009 (ip), vehicle: distilled water + Tween-80) 164 % of control; (dose: 12.5 mg/kg/injection, schedule: Q01DX009 (ip), vehicle: distilled water + Tween-80) 181 % of control; (dose: 20.0 mg/kg/injection, schedule: Q01DX009 (ip), vehicle: distilled water + Tween-80) 205 % of control; (dose: 40.0 mg/kg/injection, schedule: Q01DX009 (ip), vehicle: distilled water + Tween-80) 124 % of control.
On to `O=C1C2=C(OCCO2)C(=O)C2=C1OCCO2`, for which the T/C reads like this: under setting [14], 99 % of control; (dose: 200.0 mg/kg/injection, schedule: Q04DX002 (ip), vehicle: saline with Tween-80) 111 % of control; (dose: 400.0 mg/kg/injection, schedule: Q04DX002 (ip), vehicle: saline with Tween-80) 106 % of control.
With `CC(C)(O)C1CCCCC1Cl` (stereo not drawn), the T/C is, setting by setting: under setting [4], 104 % of control; under setting [5], 107 % of control; under setting [6], 104 % of control.
Turning to `O=C1c2ccccc2SC[C@@H]2CCCN12`, the T/C under setting [15] is 101 % of control; the T/C under setting [16] was 99 % of control; the T/C (dose: 240.0 mg/kg/injection, schedule: Q01DX005 (ip), vehicle: saline) is 99 % of control.
For the compound `CCC1=CC(C(O)CC(C)C)C(C)(Cc2ccc(CC)cn2)NC1c1ccccc1` (stereo not drawn), the T/C under setting [14] was 96 % of control.
On to `Cn1c(=O)c2cn[nH]c2n(C)c1=O`, for which the T/C under setting [11] is 104 % of control, the T/C under setting [12] was 100 % of control and the T/C under setting [13] was 96 % of control.
Consider `Nc1nc(SCc2ccccc2)sc1C(=O)N(Cc1ccccc1)Cc1ccccc1`, for which the T/C runs as follows: under setting [11], 98 % of control; under setting [12], 100 % of control; under setting [13], 100 % of control.
Take `CSc1nc(NCc2ccc(Cl)cc2)c2[nH]c(C)nc2n1`: the T/C is 98 % of control and 101 % of control (dose: 0.2 mg/kg/injection, schedule: Q01DX009 (ip), vehicle: saline with Tween-80); 101 % of control and 94 % of control (dose: 0.39 mg/kg/injection, schedule: Q01DX009 (ip), vehicle: saline with Tween-80); 106 % of control and 93 % of control (dose: 0.78 mg/kg/injection, schedule: Q01DX009 (ip), vehicle: saline with Tween-80); 99 % of control and 95 % of control (dose: 1.56 mg/kg/injection, schedule: Q01DX009 (ip), vehicle: saline with Tween-80).
Regarding `CCN(CC)C1=C(C)C(=O)[C@]2([Si](C)(C)C)[C@](OC)(c3ccc(C(F)(F)F)cc3)[C@]12[Si](C)(C)C`, the T/C reads like this: (dose: 100.0 mg/kg/injection, schedule: Q01DX001 (ip), vehicle: saline with Tween-80) 101 % of control; (dose: 200.0 mg/kg/injection, schedule: Q01DX001 (ip), vehicle: saline with Tween-80) 100 % of control; (dose: 400.0 mg/kg/injection, schedule: Q01DX001 (ip), vehicle: saline with Tween-80) 97 % of control.
As to `NNC(=O)OC12CC3CC(CC(C3)C1)C2`, the T/C under setting [10] is 110 % of control and the T/C under setting [1] is 110 % of control.
